Test systems include ACHN renal; HL-60(TB) leukemia; HS 578T breast; IGROV1 ovarian; KM12 colon; MCF7 breast; MDA-N; NCI-H226 lung; PC-3 prostate; SF-295 CNS; SNB-19 CNS; SW-620 colon; OVCAR-4 ovarian; MDA-MB-231 breast.
Test in all cases: NCI anticancer screen, dose series, 48 h

Each structure is given as a SMILES string.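 Briefly, cells in 96-well plates were exposed to five compound concentrations for 48 h, and endpoints were estimated by linear interpolation. TGI is the concentration that stops growth completely.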 *1 amine or outer side, *2 acyl side, *3 side chain or, on linkers, in order; H or OH if unused. Where a SMILES comes first, the peptide text is derived from it. Bridges are numbered along the chain shown (N, C = ends). [ ]: non-standard residue; d: D form. The star is where a group is joined. ξ: configuration not given here. X34 = O=C(C(CCCCNO[*:3])N[*:1])[*:2]; Fmoc = O=C(OCC1c2ccccc2-c2ccccc21)*; ξW = NC(Cc1c[nH]c2ccccc12)C(=O)O; ξP = O=C(O)C1CCCN1

Consider `COc1cc2c(cc1OC)C1=Cc3cc(OC)c(OC)cc3C(C)N1C=C2` (stereo unspecified), for which the TGI with ACHN renal, in the assay on HL-60(TB) leukemia, with HS 578T breast, in the assay on IGROV1 ovarian, in the assay on KM12 colon and in the assay with MCF7 breast was greater than 100 µM in each case. The TGI in the assay on MDA-N, with NCI-H226 lung, in the assay with PC-3 prostate, in the assay with SF-295 CNS, in the assay with SNB-19 CNS and in the assay on SW-620 colon was greater than 100 µM each time.

Regarding `CCOC(=O)C1Cc2[nH]c3ccccc3c2C(C)C1C` (stereo unspecified), the TGI in the assay with ACHN renal stood at 39.8 µM; in the assay with IGROV1 ovarian, 33.9 µM; in the assay on KM12 colon, 34.6 µM; with NCI-H226 lung, 25.3 µM; in the assay with OVCAR-4 ovarian, 30.9 µM; with SF-295 CNS, 42.3 µM. The results for the TGI with SNB-19 CNS and in the assay with SW-620 colon were 34.5 µM and 33.6 µM, respectively.

On to `COc1ccc(C(C#N)NNC(=O)c2ccccc2O)cc1OC` (stereo unspecified), for which the TGI is 96.6 µM in the assay on ACHN renal; 30.2 µM in the assay with HL-60(TB) leukemia; greater than 100 µM with IGROV1 ovarian; greater than 100 µM with KM12 colon; 22.4 µM with NCI-H226 lung; greater than 100 µM in the assay with OVCAR-4 ovarian. Also, the TGI with SF-295 CNS and in the assay with SW-620 colon was greater than 100 µM each time.

For the compound `CC1(C)OCC(COC(=O)C=[N+]=[N-])O1` (stereo unspecified), the TGI with ACHN renal, in the assay with HL-60(TB) leukemia, in the assay with IGROV1 ovarian, in the assay with KM12 colon, with MCF7 breast and in the assay on MDA-MB-231 breast was greater than 100 µM in each case. Also, the TGI in the assay on MDA-N, with NCI-H226 lung, in the assay with OVCAR-4 ovarian, in the assay with PC-3 prostate, in the assay on SF-295 CNS and in the assay on SNB-19 CNS was greater than 100 µM each time. This compound also yielded a TGI with SW-620 colon greater than 100 µM.

For the compound `O=C(CCCCCCCCC(=O)NN1C(=O)/C(=C\c2ccc(O)c(O)c2)SC1c1ccc(Cl)cc1)NN1C(=O)/C(=C\c2ccc(O)c(O)c2)SC1c1ccc(Cl)cc1` (stereo unspecified), the TGI in the assay with ACHN renal was 71.8 µM; in the assay on IGROV1 ovarian, greater than 29.5 µM; in the assay on KM12 colon, greater than 100 µM; in the assay with MCF7 breast it was greater than 100 µM; in the assay on MDA-MB-231 breast, greater than 100 µM; in the assay on MDA-N it was greater than 100 µM. The TGI was greater than 100 µM with NCI-H226 lung; greater than 100 µM with OVCAR-4 ovarian; greater than 100 µM in the assay with PC-3 prostate; 48.1 µM in the assay on SF-295 CNS; greater than 53.1 µM in the assay with SNB-19 CNS; greater than 100 µM with SW-620 colon.

On to `Cc1nc2c(sc(=S)n2-c2ccccc2)c2nc3ncccc3n12`, for which the TGI in the assay with ACHN renal, with HL-60(TB) leukemia, in the assay with HS 578T breast, with IGROV1 ovarian, in the assay with KM12 colon and in the assay with MCF7 breast was greater than 100 µM throughout. Besides, the TGI with MDA-MB-231 breast, in the assay on MDA-N, in the assay with PC-3 prostate, in the assay with SF-295 CNS, in the assay on SNB-19 CNS and with SW-620 colon was greater than 100 µM each time.

For `CCOC(=O)CNC(=O)C(CSCc1ccc(Br)cc1)NC(=O)CCC(N)C(=O)OCC` (stereo unspecified), the TGI with ACHN renal, with HS 578T breast, in the assay on IGROV1 ovarian, in the assay with KM12 colon, with MCF7 breast and in the assay with MDA-MB-231 breast was greater than 50 µM throughout. Moreover, the TGI in the assay with MDA-N, in the assay on OVCAR-4 ovarian, in the assay with PC-3 prostate, in the assay on SF-295 CNS, in the assay with SNB-19 CNS and in the assay on SW-620 colon was greater than 50 µM in each case.

Take `NC(=O)CNC(=O)C1CCCN1C(=O)C1CCCCNOC(=O)CC[C@@H](NC(=O)OCC2c3ccccc3-c3ccccc32)C(=O)NC(Cc2c[nH]c3ccccc23)C(=O)N1` (stereo partly specified) (Fmoc-[dE][ξW][X34][ξP]G-NH2; ester 1-3): the TGI in the assay with ACHN renal, in the assay on HL-60(TB) leukemia, in the assay with HS 578T breast, in the assay with IGROV1 ovarian, with KM12 colon and in the assay on MCF7 breast was greater than 100 µM in each case. For the same compound, the TGI in the assay on MDA-MB-231 breast, in the assay on NCI-H226 lung, in the assay with OVCAR-4 ovarian, in the assay with PC-3 prostate, with SF-295 CNS and in the assay on SNB-19 CNS was greater than 100 µM in each case. Further, in the assay with SW-620 colon, the TGI was greater than 100 µM.

For the compound `OCC1CCCCCCCCCCC12SCCCS2` (stereo unspecified), the TGI in the assay on ACHN renal, in the assay on HL-60(TB) leukemia, with HS 578T breast, with IGROV1 ovarian, in the assay with KM12 colon and in the assay on MCF7 breast was greater than 100 µM throughout. The TGI with MDA-N, with NCI-H226 lung, with OVCAR-4 ovarian, in the assay with PC-3 prostate, in the assay with SNB-19 CNS and in the assay on SW-620 colon was greater than 100 µM in each case.

Consider `COC(=O)C(CCC#N)(CCC#N)C(=O)OC`, for which the TGI in the assay with ACHN renal, in the assay on HL-60(TB) leukemia, with IGROV1 ovarian, with KM12 colon, in the assay on NCI-H226 lung and in the assay on SF-295 CNS was greater than 100 µM in each case. Besides, the TGI with SNB-19 CNS and in the assay on SW-620 colon was greater than 100 µM throughout.

Take `O=C(O)CSc1nnc(COc2ccc(Cl)cc2)n1-c1ccccc1`: the TGI in the assay on ACHN renal, in the assay on HL-60(TB) leukemia, with IGROV1 ovarian, with KM12 colon, in the assay on MCF7 breast and in the assay on MDA-MB-231 breast was greater than 100 µM in each case. Also, the TGI with MDA-N, in the assay on NCI-H226 lung, in the assay on OVCAR-4 ovarian, in the assay on PC-3 prostate, in the assay on SF-295 CNS and in the assay with SNB-19 CNS was greater than 100 µM in each case. The TGI in the assay on SW-620 colon was greater than 100 µM.

`c1ccc(C2C3=C(Nc4ncnn42)c2ccccc2C3)cc1` (stereo unspecified): the TGI in the assay on ACHN renal, with HL-60(TB) leukemia, with IGROV1 ovarian, in the assay on KM12 colon, with OVCAR-4 ovarian and in the assay with SF-295 CNS was greater than 100 µM in each case. The TGI in the assay on SNB-19 CNS was greater than 100 µM; in the assay on SW-620 colon it was 17.4 µM.

The values are drawn from PubChem BioAssay (NCI).
